# Reference: US8293729B2 (Boehringer Ingelheim International GmbH, priority 2009, dated 2012)
# Target: T1, human GPR119 receptor (Homo sapiens, UniProt Q8TDV5, S329A/T327A)
# T1 construct: N-terminal leader […]; expressed in transfected cells
# T1 sequence (Q8TDV5 with tags, fused parts or gaps T327A/S329A): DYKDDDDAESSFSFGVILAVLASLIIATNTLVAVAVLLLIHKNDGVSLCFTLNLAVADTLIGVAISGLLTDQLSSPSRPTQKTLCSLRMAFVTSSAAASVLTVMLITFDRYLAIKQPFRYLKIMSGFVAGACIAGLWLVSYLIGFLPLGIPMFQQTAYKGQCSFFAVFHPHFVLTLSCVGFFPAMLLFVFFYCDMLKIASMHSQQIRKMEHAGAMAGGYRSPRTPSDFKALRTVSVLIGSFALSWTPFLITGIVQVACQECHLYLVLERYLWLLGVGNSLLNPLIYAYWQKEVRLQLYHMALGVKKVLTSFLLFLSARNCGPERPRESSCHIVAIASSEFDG
# Assay: cAMP assay (LANCE cAMP-384) in HEK293 cells stably expressing mutant human GPR119 receptor
# Type: cell-based
# Details: EC50, cAMP accumulation, HEK293 cells stably expressing mutant human GPR119
# Summary of the method: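 HEK293 cells stably expressing human GPR119 (T327A/S329A, modified N-terminus), 1000 cells/well, exposed to compound for 20 min at 37° C. cAMP quantified by LANCE TR-FRET against a standard curve; EC50 from 12 points, 30 μM to 100 pM, or % stimulation at 10 μM.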
row,Compound,EC50
1,CNC(=O)c1cc(F)c(N2CCC(=NOC3CCN(C(=O)OC(C)C)CC3)CC2)cc1F [Example 2-35],34 nM

# Same assay, conditions: HEK293, 20 min; single concentration 10 μM; given where no EC50 value could be determined; read-out: % stimulation at 10 μM
row,Compound,activation at 10 µM
1,CC(C)OC(=O)N1CCC(ON=C2CCN(c3cc(F)c(CN4CCOCC4)cc3F)CC2)CC1 [Example 5-4],69%
2,CC(C)OC(=O)N1CCC(ON=C2CCN(c3ncc(Cl)cc3F)CC2)CC1 [Example 2-68],63%

# Same assay, conditions: cAMP accumulation, HEK293 cells stably expressing mutant human GPR119; read-out: EC50
row,Compound,EC50
1,"CC(C)OC(=O)N1CCC(ON=C2CCN(c3cc(F)c(CS(C)(=O)=O)cc3F)CC2)CC1 [Example 13-1, 4-[1-(2,5-Difluoro-4-methanesulfonylmethyl-phenyl)-piperidin-4-ylideneaminooxy]-piperidine-1-carboxylic acid isopropyl ester]",30 nM
2,"CC(=O)OCc1cc(F)c(N2CCC(=NOC3CCN(C(=O)OC(C)C)CC3)CC2)cc1F [Example 11-1, 4-[1-(4-acetoxymethyl-2,5-difluoro-phenyl)-piperidin-4-ylideneaminooxy]-piperidine-1-carboxylic acid isopropyl ester]",67 nM
3,CC(C)OC(=O)N1CCC(ON=C2CCN(c3cc(F)c(S(C)(=O)=O)cc3F)CC2)CC1 [Example 2-60],28 nM
4,CC(C)OC(=O)N1CCC(ON=C2CCN(c3ccncc3F)CC2)CC1 [Example 2-72],750 nM
5,CC(C)OC(=O)N1CCC(ON=C2CCN(c3cc(F)c(CN4CCN(C)C4=O)cc3F)CC2)CC1 [Example 15-2],282 nM
6,CC(C)OC(=O)N1CCC(ON=C2CCN(c3cc(F)c(-c4cscn4)cc3F)CC2)CC1 [Example 27-19],3080 nM
7,CC(C)OC(=O)N1CCC(ON=C2CCN(c3cc(F)c(-c4c[nH]cn4)cc3F)CC2)CC1 [Example 27-14],152 nM
8,Cc1nc(C)c(-c2cc(F)c(N3CCC(=NOC4CCN(C(=O)OC(C)C)CC4)CC3)cc2F)s1 [Example 27-25],> 10000 nM
9,CC(C)OC(=O)N1CCC(ON=C2CCN(c3nc(F)ccc3F)CC2)CC1 [Example 2-70],3260 nM
10,COC(=O)c1nc(Cl)c(N2CCC(=NOC3CCN(C(=O)OC(C)C)CC3)CC2)nc1N [Example 2-34],> 10000 nM
11,"CC(C)OC(=O)N1CCC(ON=C2CCN(c3nc(Cl)c(CO)nc3Cl)CC2)CC1 [Example 56-1, 4-[1-(3,6-Dichloro-5-hydroxymethyl-pyrazin-2-yl)-piperidin-4-ylideneaminooxy]-piperidine-1-carboxylic acid isopropyl ester]",35 nM
12,CC(C)OC(=O)N1CCC(ON=C2CCN(c3ccc(C=O)cc3)CC2)CC1 [Example 2-28],> 10000 nM
13,Cc1ccsc1-c1cc(F)c(N2CCC(=NOC3CCN(C(=O)OC(C)C)CC3)CC2)cc1F [Example 27-24],329 nM
14,CC(C)OC(=O)N1CCC(ON=C2CCN(c3ccc(CO)c(Cl)n3)CC2)CC1 [Example 2-26],758 nM
15,COc1nc(N2CCC(=NOC3CCN(C(=O)OC(C)C)CC3)CC2)ncc1Br [Example 2-56],> 10000 nM
16,CCc1cnc(-c2cc(F)c(N3CCC(=NOC4CCN(C(=O)OC(C)C)CC4)CC3)cc2F)nc1 [Example 27-21],509 nM
17,CC(C)OC(=O)N1CCC(ON=C2CCN(c3ncc(Cl)c(Cl)n3)CC2)CC1 [Example 2-50],> 10000 nM

# Same assay, conditions: the 15th table; read-out: EC50
row,Compound,EC50
1,CC(C)OC(=O)N1CCC(ON=C2CCN(c3cc(F)c(C(=O)N4CCCC(CN5CCCCC5)C4)cc3F)CC2)CC1 (stereo not drawn) [Example 29-56],133 nM
2,CC(C)OC(=O)N1CCC(ON=C2CCN(c3cc(F)c(C(=O)N4CCC[C@@H]4CN)cc3F)CC2)CC1 [Example 29-50],133 nM

# Same assay, conditions: the 19th table; unit inferred; read-out: EC 50
row,Compound,EC50
1,CCc1cnc(N2CCC(ON=C3CCN(c4cc(F)c(C(=O)NCC5CNCCO5)cc4F)CC3)CC2)nc1 (stereo not drawn) [Example 29-113],26 nM
2,CCc1cnc(N2CCC(ON=C3CCN(c4cc(F)c(C(=O)N5CCC[C@H]5CN)cc4F)CC3)CC2)nc1 [Example 29-133],164 nM
3,CCc1cnc(N2CCC(ON=C3CCN(c4cc(F)c(C(=O)N5CCC[C@@H]5CN)cc4F)CC3)CC2)nc1 [Example 29-132],114 nM
4,CCc1cnc(N2CCC(ON=C3CCN(c4cc(F)c(C(=O)N5CCC[C@@H](N)C5)cc4F)CC3)CC2)nc1 [Example 29-88],221 nM

# Same assay, conditions: the 27th table; read-out: EC50
row,Compound,EC50
1,"CC(C)OC(=O)N1CCC(ON=C2CCN(c3cc(F)c(CO)cc3F)CC2)CC1 [Example 48-1, 4-[1-(2,5-Difluoro-4-hydroxymethyl-phenyl)-piperidin-4-ylideneaminooxy]-piperidine-1-carboxylic acid isopropyl ester]",9 nM

# Same assay, conditions: the 28th table; read-out: EC50
row,Compound,EC50
1,CC(C)OC(=O)N1CCC(ON=C2CCN(c3ncc(-n4cncn4)cn3)CC2)CC1 [Example 51-4],735 nM

# Same assay, conditions: the 30th table; read-out: EC50
row,Compound,EC50
1,CC(C)OC(=O)N1CCC(ON=C2CCN(c3ncc(Cn4nccn4)cc3F)CC2)CC1 [Example 54-3],765 nM

# Same assay, conditions: the 32nd table; read-out: EC50
row,Compound,EC50
1,CS(=O)(=O)c1ccc(N2CCC(=NOC3CCN(c4ncc(Br)cc4F)CC3)CC2)c(F)c1 [Example 63-25],195 nM
2,Cc1cccc(N2CCC(ON=C3CCN(c4ccc(S(C)(=O)=O)cc4F)CC3)CC2)n1 [Example 63-2],1250 nM
3,CS(=O)(=O)c1ccc(N2CCC(=NOC3CCN(c4ccc(Br)cn4)CC3)CC2)c(F)c1 [Example 63-20],387 nM

# Same assay, conditions: the 33rd table; read-out: EC50
row,Compound,EC50
1,CC(C)[C@H](N)COC(=O)N1CCC(ON=C2CCN(c3ccc(S(C)(=O)=O)cc3F)CC2)CC1 [Example 64-37],> 10000 nM
2,CC(N)COC(=O)N1CCC(ON=C2CCN(c3ccc(S(C)(=O)=O)cc3F)CC2)CC1 (stereo not drawn) [Example 64-34],> 10000 nM
3,CCN(CC)CCCOC(=O)N1CCC(ON=C2CCN(c3ccc(S(C)(=O)=O)cc3F)CC2)CC1 [Example 64-29],> 10000 nM
4,CN(C)CCCOC(=O)N1CCC(ON=C2CCN(c3ccc(S(C)(=O)=O)cc3F)CC2)CC1 [Example 64-15],> 10000 nM
5,CCC(C)COC(=O)N1CCC(ON=C2CCN(c3ccc(S(C)(=O)=O)cc3F)CC2)CC1 (stereo not drawn) [Example 64-47],43 nM
6,CN(C)CCCCOC(=O)N1CCC(ON=C2CCN(c3ccc(S(C)(=O)=O)cc3F)CC2)CC1 [Example 64-21],> 10000 nM

# Same assay, conditions: the 34th table, compounds 65-1 to 65-24; read-out: EC50
row,Compound,EC50
1,CS(=O)(=O)c1ccc(N2CCC(=NOC3CCN(C(=O)OCc4ccccc4)CC3)CC2)c(F)c1 [Example 65-14],153 nM

# Same assay, conditions: the 36th table, compounds 66-1 to 66-51; read-out: EC50
row,Compound,EC50
1,CS(=O)(=O)c1ccc(N2CCC(=NOC3CCN(Cc4ccncc4)CC3)CC2)c(F)c1 [Example 66-4],> 10000 nM
2,Cc1cccc(CN2CCC(ON=C3CCN(c4ccc(S(C)(=O)=O)cc4F)CC3)CC2)c1 [Example 66-25],605 nM
3,CS(=O)(=O)c1ccc(N2CCC(=NOC3CCN(Cc4ccc(Cl)cc4)CC3)CC2)c(F)c1 [Example 66-28],363 nM

# Same assay, conditions: the 37th table, compounds 66-52 to 66-64; read-out: EC50
row,Compound,EC50
1,CCCc1ccc(CN2CCC(ON=C3CCN(c4cc(F)c(S(C)(=O)=O)cc4F)CC3)CC2)c(F)c1 [Example 66-59],53 nM
2,CS(=O)(=O)c1cc(F)c(N2CCC(=NOC3CCN(Cc4ccc(-c5ccccn5)cc4)CC3)CC2)cc1F [Example 66-52],926 nM

# Same assay, conditions: the 38th table, compounds 66-65 to 66-72; read-out: EC50
row,Compound,EC50
1,CNC(=O)c1cc(F)c(N2CCC(=NOC3CCN(Cc4ccc(C)cc4)CC3)CC2)cc1F [Example 66-70],193 nM
2,CNC(=O)c1cc(F)c(N2CCC(=NOC3CCN(Cc4ccc(-c5cccnc5)cc4)CC3)CC2)cc1F [Example 66-66],1270 nM

# Same assay, conditions: the 43rd table, compounds 75-1 to 75-38; read-out: EC50
row,Compound,EC50
1,CC(C)OC(=O)N1CCC(ON=C2CCN(c3cc(F)c(CC(=O)N4CCCCC4CN(C)C)cc3F)CC2)CC1 (stereo not drawn) [Example 75-36],322 nM
2,CC(C)OC(=O)N1CCC(ON=C2CCN(c3cc(F)c(CC(=O)N4CC[C@@H](N)C4)cc3F)CC2)CC1 [Example 75-19],78 nM
3,"CC(C)OC(=O)N1CCC(ON=C2CCN(c3cc(F)c(CC(=O)NCCN(C)C)cc3F)CC2)CC1 [Example 75-1, 4-(1-{4-[(2-dimethylamino-ethylcarbamoyl)-methyl]-2,5-difluoro-phenyl}-piperidin-4-ylideneaminooxy)-piperidine-1-carboxylic acid isopropyl ester]",254 nM

# Same assay, conditions: the 44th table, compounds 77-1 to 77-14; read-out: EC50
row,Compound,EC50
1,CCc1cnc(N2CCC(ON=C3CCN(c4cc(F)c(CC(=O)N5CC[C@@H](N(C)C)C5)cc4F)CC3)CC2)nc1 [Example 77-6],9 nM

# Test system: male ZDF rats
# Assay: In vivo OGTT (oral glucose tolerance test) in Sprague Dawley or Zucker Diabetic Fatty rats
# Set-up: species or system rat
# Details: nine week old male ZDF rats, 30 mg/kg p.o. 30 minutes prior to glucose bolus, 2 hrs post glucose bolus
# Method: Nine to 13 week old Male Sprague Dawley rats weighing 250 g-350 g or 9 week old male Zucker Diabetic Fatty rats weighing 300 g-450 g were fasted overnight for 16 hours. At time zero, blood was collected using the tail-nick method and glucose was measured with a glucometer (Bayer HealthCare) Animals then immediately received either vehicle (80% Labrasol, Gattefossé, France) or 3, 10, or 30 mg/kg GPR119 agonist (p.o., volume 2 mL/kg). Thirty minutes later blood glucose was again measured preceding the administration of a glucose bolus (p.o. 2 g/kg, volume 6 mL/kg). Blood glucose was then determined at 10, 20, 30, 60, 90, 120, and 180 minutes post glucose bolus or 20, 40, 60, 80, 100, and 120 minutes past glucose bolus.
# Nine week old male ZDF rats were dosed with either 30 mg/kg of Compound 2-35 or 30 mg/kg of Compound 8-1 30 minutes prior to administration of the glucose bolus.
row,Compound,reduction of glucose excursion compared to vehicle (glucose area under the curve)
1,CNC(=O)c1cc(F)c(N2CCC(=NOC3CCN(C(=O)OC(C)C)CC3)CC2)cc1F [Example 2-35],75%
